Assay results published in patent US9394284B2, “Compounds act at multiple prostaglandin receptors giving a general anti-inflammatory response” (Allergan, Inc., priority 2010, dated 2016).

Tests used:
Assay type in all cases: cell-based
[1] = target: T1, human prostanoid IP receptor (Homo sapiens, UniProt P43119); experiment: FLIPR Ca2+ signaling antagonist assay, IP receptor stable cell line; conditions: HEK-293 EBNA stable cell line; standard agonist Cicaprost; NA = inactive (no antagonism or Kb 10,000 nM); PAg, Ag not defined
T1 construct: expressed in transfected cells
Protocol: (§1) The above compounds were tested for PG antagonist activity as follows using human recombinant prostanoid receptor (DP1, EP1-4, FP, IP and TP) stable cell lines:
(§2) In order to measure the response of Gs and Gi coupled prostanoid receptors as a Ca^2+ signal, chimeric G protein cDNAs were used. Stable cell lines over-expressing human prostanoid DP1, EP1-4, FP, IP, and TP receptors were established as follows:
(§3) Briefly, human prostanoid DP1, EP2, and EP4 receptor cDNAs were co-transfected with chimeric Gqs cDNA containing a haemagglutanin (HA) epitope; human prostanoid EP3 receptors were co-transfected with chimeric Gqi-HA; human EP1, FP, IP, and TP receptor cDNAs were expressed with no exogenous G-proteins. Gqs and Gqi chimeric cDNAs (Molecular Devices, Sunnyvale, Calif., U.S.A.), as well as cDNAs of prostanoid receptors, were cloned into a pCEP4 vector with a hygromycin B selection marker. Transfection into HEK-293 EBNA (Epstein-Barr virus nuclear antigen) cells was achieved by the FuGENE 6 transfection Reagent (Roche Applied Science, Indianapolis, Ind., USA). Stable transfectants were selected according to hygromycin resistance. Because Gqs and Gqi contained an HA epitope, G-protein expression was detected by Western blotting analysis using anti-mouse HA monoclonal antibody and horseradish peroxidase (HRP)-conjugated secondary antibody, while functional expression of prostanoid receptors was detected by FLIPR screening (Matias et al., 2004). These stable cell lines were validated using previously published antagonists at 10 μM against serial dilutions of standard agonists by FLIPR functional assays for Ca^2+ Signaling (as described below).
(§4) Ca^2+ signaling studies were performed using a FLIPR TETRA system (Molecular Devices, Sunnyvale, Calif., USA) in the 384-format. This is a high-throughput instrument for cell-based assays to monitor Ca^2+ signaling associated with GPCRs and ion channels. Cells were seeded at a density of 5×10^4 cells/well in BioCoat poly-D-lysine coated, black wall, clear bottom 384-well plates (BD Biosciences, Franklin lakes, NJ, USA) and allowed to attach overnight in an incubator at 37° C. The cells were then washed twice with HBSS-HEPES buffer (Hanks' balanced salt solution without bicarbonate and phenol red, 20 mM HEPES, pH 7.4) using an ELx405 Select CW Microplate Washer (BioTek, Winooski, Vt., USA). After 60 min of dye-loading in the dark using the Ca^2+-sensitive dye Fluo-4AM (Invitrogen, Carlsbad, Calif., USA), at a final concentration of 2×10^−6M, the plates were washed 4 times with HBSS-HEPES buffer to remove excess dye and leaving 50 μl of buffer in each well. The plates were then placed in the FLIPR TETRA instrument and allowed to equilibrate at 37° C. AGN-211377 was added in a 25 μl volume to each well to give final concentrations of 0.1 μM, 0.3 μM, 1 μM, 3 μM, 10 μM, and 30 μM; or 0.067 μM, 0.1 μM, 0.2 μM, 0.3 μM, 0.67 μM, and 1 μM for cells over-expressing TP receptors. After 4.5 minutes, a 7-point serial dilution of the standard agonist for the corresponding receptor, in a 25 μl volume was injected at the final concentrations from 10^−11M to 10^−5M in 10-fold serial dilution increments for cells expressing human recombinant DP1, EP1, EP2, EP3, EP4, FP, and IP receptors. The dose range for the standard agonist for human recombinant TP receptors was from 10^−12 M to 10^−6 M. HBSS-HEPES buffer was used as the negative control for the standard agonists. Cells were excited with LED (light emitting diode) excitation at 470-495 nm and emission was measured through an emission filter at 515-575 nm. Assay plates were read for 3.5 minutes using the FLIPR^TETRA. The peak increase in fluorescence intensity was recorded for each well. On each plate, negative controls, dose response of positive controls, and co-treatments of antagonist-agonist for each dose were in triplicates.
(§5) Standard agonists were as follows: DP=BW 245C, EP1-EP4=PGE2, FP=17-phenyl-PGF2α, IP=Cicaprost, and TP=U-46619. […]

[2] = target: T2, human prostanoid FP receptor (Homo sapiens, UniProt P43088); experiment: FLIPR Ca2+ signaling antagonist assay, FP receptor stable cell line; conditions: HEK-293 EBNA stable cell line; standard agonist 17-phenyl-PGF2α; NA = inactive (no antagonism or Kb 10,000 nM); PAg, Ag not defined
T2 construct: expressed in transfected cells
Protocol: as §1, §2, §3, §4, §5

[3] = target: T3, human prostanoid EP1 receptor (Homo sapiens, UniProt P34995); experiment: FLIPR Ca2+ signaling antagonist assay, EP1 receptor stable cell line; conditions: HEK-293 EBNA stable cell line; standard agonist PGE2; NA = inactive (no antagonism or Kb 10,000 nM); PAg, Ag not defined
T3 construct: expressed in transfected cells
T3 sequence (P34995 1-402): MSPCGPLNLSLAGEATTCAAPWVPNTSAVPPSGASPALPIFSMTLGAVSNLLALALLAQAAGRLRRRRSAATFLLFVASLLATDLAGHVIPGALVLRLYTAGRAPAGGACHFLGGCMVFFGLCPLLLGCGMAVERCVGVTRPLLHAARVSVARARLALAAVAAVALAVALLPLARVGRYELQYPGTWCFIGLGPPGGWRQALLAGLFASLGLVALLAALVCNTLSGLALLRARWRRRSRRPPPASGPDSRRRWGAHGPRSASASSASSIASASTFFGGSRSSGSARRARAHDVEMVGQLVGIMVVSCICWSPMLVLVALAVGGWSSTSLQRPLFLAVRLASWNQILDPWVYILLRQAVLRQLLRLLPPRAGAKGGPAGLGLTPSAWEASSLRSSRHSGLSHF
Protocol: as §1, §2, §3, §4, §5

[4] = target: T4, human prostanoid EP2 receptor (Homo sapiens, UniProt P43116); experiment: FLIPR Ca2+ signaling antagonist assay, EP2 receptor stable cell line; conditions: HEK-293 EBNA stable cell line; standard agonist PGE2; NA = inactive (no antagonism or Kb 10,000 nM); PAg, Ag not defined
T4 construct: expressed in transfected cells
Protocol: as §1, §2, §3, §4, §5

[5] = target: T5, human prostanoid DP1 receptor (Homo sapiens, UniProt Q13258); experiment: FLIPR Ca2+ signaling antagonist assay, DP1 receptor stable cell line; conditions: HEK-293 EBNA stable cell line; standard agonist BW 245C; NA = inactive (no antagonism or Kb 10,000 nM); PAg, Ag not defined
T5 construct: expressed in transfected cells
T5 sequence (Q13258 1-359): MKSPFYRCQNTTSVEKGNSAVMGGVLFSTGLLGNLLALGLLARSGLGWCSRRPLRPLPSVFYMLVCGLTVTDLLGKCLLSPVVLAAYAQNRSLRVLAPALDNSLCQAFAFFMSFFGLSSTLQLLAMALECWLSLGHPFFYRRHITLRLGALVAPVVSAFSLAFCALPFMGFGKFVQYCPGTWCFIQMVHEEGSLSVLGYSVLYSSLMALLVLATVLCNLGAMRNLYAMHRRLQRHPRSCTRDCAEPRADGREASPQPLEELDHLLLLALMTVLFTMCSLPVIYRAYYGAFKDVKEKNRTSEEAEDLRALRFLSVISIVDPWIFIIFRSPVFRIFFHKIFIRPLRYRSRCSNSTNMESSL
Protocol: as §1, §2, §3, §4, §5

[6] = target: T6, human prostanoid TP receptor (Homo sapiens, UniProt P21731); experiment: FLIPR Ca2+ signaling antagonist assay, TP receptor stable cell line; conditions: HEK-293 EBNA stable cell line; standard agonist U-46619; NA = inactive (no antagonism or Kb 10,000 nM); PAg, Ag not defined
T6 construct: expressed in transfected cells
T6 sequence (P21731 1-343): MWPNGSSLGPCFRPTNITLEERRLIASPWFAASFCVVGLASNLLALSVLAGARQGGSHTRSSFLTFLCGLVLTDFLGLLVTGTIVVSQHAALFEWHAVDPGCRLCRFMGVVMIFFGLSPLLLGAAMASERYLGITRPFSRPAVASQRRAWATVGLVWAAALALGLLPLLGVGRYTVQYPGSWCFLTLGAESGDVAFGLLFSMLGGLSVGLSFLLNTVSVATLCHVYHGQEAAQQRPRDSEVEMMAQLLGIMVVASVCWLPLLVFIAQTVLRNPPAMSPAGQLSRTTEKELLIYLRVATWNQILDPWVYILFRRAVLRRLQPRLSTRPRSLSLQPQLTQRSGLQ
Protocol: as §1, §2, §3, §4, §5

[7] = target: T7, human prostanoid EP4 receptor (Homo sapiens, UniProt P35408); experiment: FLIPR Ca2+ signaling antagonist assay, EP4 receptor stable cell line; conditions: HEK-293 EBNA stable cell line; standard agonist PGE2; NA = inactive (no antagonism or Kb 10,000 nM); PAg, Ag not defined
T7 construct: expressed in transfected cells
Protocol: as §1, §2, §3, §4, §5

T4 sequence (P43116 whole entry): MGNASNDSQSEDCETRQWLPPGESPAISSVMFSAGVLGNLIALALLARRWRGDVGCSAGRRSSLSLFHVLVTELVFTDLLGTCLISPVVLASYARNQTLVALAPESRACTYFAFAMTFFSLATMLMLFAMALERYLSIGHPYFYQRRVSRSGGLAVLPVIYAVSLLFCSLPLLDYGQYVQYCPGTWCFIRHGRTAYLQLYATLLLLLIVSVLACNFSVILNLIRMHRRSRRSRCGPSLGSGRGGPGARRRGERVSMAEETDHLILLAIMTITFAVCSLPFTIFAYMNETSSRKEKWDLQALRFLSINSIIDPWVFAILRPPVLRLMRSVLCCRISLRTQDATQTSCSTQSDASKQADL
T7 sequence (P35408 whole entry): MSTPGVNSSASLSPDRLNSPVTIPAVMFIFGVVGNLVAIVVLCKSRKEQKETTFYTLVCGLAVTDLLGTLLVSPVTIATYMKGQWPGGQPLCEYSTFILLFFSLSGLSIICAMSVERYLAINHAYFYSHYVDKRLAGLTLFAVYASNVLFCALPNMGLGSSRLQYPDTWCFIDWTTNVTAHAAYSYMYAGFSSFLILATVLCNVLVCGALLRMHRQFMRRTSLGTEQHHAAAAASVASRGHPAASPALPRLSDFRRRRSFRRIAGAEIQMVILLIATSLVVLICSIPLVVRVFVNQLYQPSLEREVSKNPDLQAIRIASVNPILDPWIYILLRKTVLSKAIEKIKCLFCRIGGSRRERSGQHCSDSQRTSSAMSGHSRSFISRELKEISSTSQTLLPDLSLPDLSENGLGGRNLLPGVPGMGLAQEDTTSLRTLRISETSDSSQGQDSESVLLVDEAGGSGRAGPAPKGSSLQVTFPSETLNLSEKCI
T2 sequence (P43088 whole entry): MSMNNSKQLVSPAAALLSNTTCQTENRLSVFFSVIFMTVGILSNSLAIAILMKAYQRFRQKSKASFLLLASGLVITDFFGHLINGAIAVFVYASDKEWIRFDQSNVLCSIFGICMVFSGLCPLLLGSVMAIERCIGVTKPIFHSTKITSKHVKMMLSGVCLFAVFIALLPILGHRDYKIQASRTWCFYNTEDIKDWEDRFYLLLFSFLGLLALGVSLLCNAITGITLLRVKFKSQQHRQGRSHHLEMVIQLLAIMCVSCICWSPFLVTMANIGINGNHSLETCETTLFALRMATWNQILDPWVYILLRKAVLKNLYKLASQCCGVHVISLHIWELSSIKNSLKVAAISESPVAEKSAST
T1 sequence (P43119 whole entry): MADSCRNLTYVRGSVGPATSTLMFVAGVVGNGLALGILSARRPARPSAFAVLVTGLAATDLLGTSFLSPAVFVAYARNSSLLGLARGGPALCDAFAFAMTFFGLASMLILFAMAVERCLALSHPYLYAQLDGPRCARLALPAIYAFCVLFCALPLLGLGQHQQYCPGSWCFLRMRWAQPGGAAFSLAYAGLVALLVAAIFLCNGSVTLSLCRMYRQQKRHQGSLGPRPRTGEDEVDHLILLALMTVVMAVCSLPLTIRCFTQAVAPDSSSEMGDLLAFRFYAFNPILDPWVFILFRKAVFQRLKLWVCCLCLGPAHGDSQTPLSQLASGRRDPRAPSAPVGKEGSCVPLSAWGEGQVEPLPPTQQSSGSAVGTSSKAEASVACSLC

IP (FLIPR) Kb [1]	Kb [4]	TP (FLIPR) Kb [6]	SMILES	Kb [2]	Kb [3]	Kb [5]	Kb [1]	Kb [6]	Kb [7]
PAg	9800 nM	Ag	Cc1cc(CCC(=O)O)nn1Cc1cc(Cl)ccc1OCc1ccc(Cl)cc1C(F)(F)F [Example 29, 3-[1-(5-Chloro-2-(4-chloro-2-trifluoromethylbenzyloxy)benzyl)-5-methyl-1H-pyrazol-3-yl]-propionic acid]	5900 nM	70 nM	790 nM			
			C#Cc1ccc(OCC(CC)CC)c(Cn2nc(CCC(=O)O)cc2C)c1 [Example 64, 3-{1-[5-Ethynyl-2-(2-ethyl-butoxy)-benzyl]-5-methyl-1H-pyrazol-3-yl}-propionic acid]	50 nM	270 nM	800 nM	2000 nM	9 nM	500 nM
			CCC(CC)COc1ccc(Br)cc1Cn1nc(CC(C)C(=O)O)cc1C (stereo not drawn) [Example 67, 3-{1-[5-Bromo-2-(2-ethyl-butoxy)-benzyl]-5-methyl-1H-pyrazol-3-yl}-2-methyl-propionic acid]	140 nM	10 nM	400 nM	1500 nM	20 nM	70 nM
			CCC(C)COc1ccc(Br)cc1Cn1nc(CCC(=O)O)cc1C (stereo not drawn) [Example 10, 3-[1-(5-Bromo-2-(2-methyl-butoxy)-benzyl)-5-methyl-1H-pyrazol-3-yl]-propionic acid]	70 nM	12 nM	360 nM	4200 nM	2 nM	100 nM
			CCC(CC)COc1ccc(C(C)(C)C)cc1Cn1nc(CCC(=O)O)cc1C [Example 49, 3-[1-[2-(2-Ethyl-butoxy)-5-tert-butyl-benzyl]-5-methyl-1H-pyrazol-3-yl]-propionic acid]	1700 nM	40 nM	270 nM	2500 nM	24 nM	1800 nM
			Cc1cc(CCC(=O)NS(=O)(=O)C(F)(F)F)nn1Cc1cc(Br)ccc1OCC1CCCC1 [Example 18, N-(3-{1-[5-Bromo-2-(2-cyclopentylmethoxy)-benzyl]-5-methyl-1H-pyrazol-3-yl}-propionyl)-C,C,C-trifluoro-methanesulfonamide]	250 nM	14 nM	400 nM	3100 nM	2 nM	300 nM
			CCC(CC)COc1ccc(C)cc1Cn1nc(CCC(=O)O)cc1C [Example 65, 3-{1-[2-(2-Ethyl-butoxy)-5-methyl-benzyl]-5-methyl-1H-pyrazol-3-yl}-propionic acid]	1300 nM	150 nM	550 nM	2300 nM	10 nM	100 nM
	2500 nM		Cc1cc(CCC(=O)O)nn1Cc1cc(Cl)ccc1OCC(C)C [Example 42, 3-[1-(5-Chloro-2-(2-methylpropyloxy)benzyl)-5-methyl-1H-pyrazol-3-yl]-propionic acid]	180 nM	30 nM	260 nM		40 nM	1600 nM
			CCC(CC)COc1ccc(C(F)(F)F)cc1Cn1nc(CCC(=O)O)cc1C [Example 46, 3-[1-[2-(2-Ethyl-butoxy)-5-trifluoromethyl-benzyl]-5-methyl-1H-pyrazol-3-yl]-propionic acid]	240 nM	40 nM	700 nM	2100 nM	3 nM	170 nM
			CCC(C)CCOc1ccc(Br)cc1Cn1nc(CCC(=O)O)cc1C (stereo not drawn) [Example 7, 3-[1-(5-Bromo-2-(3-methyl-pentyloxy)-benzyl)-5-methyl-1H-pyrazol-3-yl]-propionic acid]	90 nM	90 nM	490 nM	3500 nM	2 nM	600 nM
			Cc1cc(CC(C)(C)C(=O)O)nn1Cc1cc(Cl)ccc1OCC1CCCC1 [Example 72, 3-{1-[5-Chloro-2-(2-cyclopentylmethoxy)-benzyl]-5-methyl-1H-pyrazol-3-yl}-2,2-dimethyl-propionic acid]	450 nM	70 nM	560 nM	1700 nM	40 nM	180 nM

SMILES	IP (FLIPR) Kb [1]	Kb [4]	TP (FLIPR) Kb [6]	Kb [2]	Kb [3]	Kb [5]	Kb [1]	Kb [6]	Kb [7]
Cc1cc(CCC(=O)O)nn1Cc1cc(Br)ccc1OCC(C)C [Example 16, 3-[1-(5-Bromo-2-isobutoxybenzyl)-5-methyl-1H-pyrazol-3-yl]-propionic acid]		2700 nM		70 nM	14 nM	200 nM		14 nM	1000 nM
